Experimental data as given in US9061060B2, “Deuterated benzylbenzene derivatives and methods of use” (Theracos Inc., priority 2008, dated 2015).

Key:
CYP2C19 = target: T1, CYP2C19 (Homo sapiens, UniProt P33261); test: P450-Glo CYP screening kit, CYP2C19 inhibition; assay type: in vitro ADME; conditions: luminescence, read-out: IC50 2C19
T1 construct: purchased Promega
From the text: (§1) P450-Glo™ CYP Screening Kits for CYP1A2, CYP3A4 and CYP2C19 were purchased from Promega. […] Luminescence was quantified using a Victor 3 spectrophotometer (PerkinElmer).

CYP1A2 = target: T2, CYP1A2 (Homo sapiens, UniProt P05177); test: P450-Glo CYP screening kit, CYP1A2 inhibition; assay type: in vitro ADME; conditions: luminescence, read-out: IC50 1A2
T2 construct: purchased Promega
T2 sequence (P05177 1-516): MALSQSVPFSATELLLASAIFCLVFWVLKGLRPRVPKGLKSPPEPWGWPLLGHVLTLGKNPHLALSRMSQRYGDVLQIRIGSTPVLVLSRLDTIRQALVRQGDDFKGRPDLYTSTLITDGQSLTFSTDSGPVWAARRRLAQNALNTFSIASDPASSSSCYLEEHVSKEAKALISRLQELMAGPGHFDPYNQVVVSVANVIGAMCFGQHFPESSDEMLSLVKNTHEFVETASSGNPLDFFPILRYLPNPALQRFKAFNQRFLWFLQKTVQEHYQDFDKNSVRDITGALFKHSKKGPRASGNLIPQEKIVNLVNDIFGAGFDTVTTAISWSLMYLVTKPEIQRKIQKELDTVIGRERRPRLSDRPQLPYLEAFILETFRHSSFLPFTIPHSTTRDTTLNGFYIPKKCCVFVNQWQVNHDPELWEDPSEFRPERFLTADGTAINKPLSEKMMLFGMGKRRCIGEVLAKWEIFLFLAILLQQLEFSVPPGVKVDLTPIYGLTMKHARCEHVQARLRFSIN
From the text: as §1

human SGLT2 = target: T3, human SGLT2 (Homo sapiens, UniProt P31639); test: Methyl-α-D-[U-14C]glucopyranoside uptake assay, cells stably expressing human SGLT2; assay type: cell-based; conditions: for IC50: HEK293.ETN cells expressing human SGLT2, 25% human serum, 1.5 hours; for Selectivity: SGLT1 IC50 divided by SGLT2 IC50
T3 construct: A full-length cDNA clone expressing human SGLT2 (GenScript Corporation)
T3 sequence (P31639 1-672): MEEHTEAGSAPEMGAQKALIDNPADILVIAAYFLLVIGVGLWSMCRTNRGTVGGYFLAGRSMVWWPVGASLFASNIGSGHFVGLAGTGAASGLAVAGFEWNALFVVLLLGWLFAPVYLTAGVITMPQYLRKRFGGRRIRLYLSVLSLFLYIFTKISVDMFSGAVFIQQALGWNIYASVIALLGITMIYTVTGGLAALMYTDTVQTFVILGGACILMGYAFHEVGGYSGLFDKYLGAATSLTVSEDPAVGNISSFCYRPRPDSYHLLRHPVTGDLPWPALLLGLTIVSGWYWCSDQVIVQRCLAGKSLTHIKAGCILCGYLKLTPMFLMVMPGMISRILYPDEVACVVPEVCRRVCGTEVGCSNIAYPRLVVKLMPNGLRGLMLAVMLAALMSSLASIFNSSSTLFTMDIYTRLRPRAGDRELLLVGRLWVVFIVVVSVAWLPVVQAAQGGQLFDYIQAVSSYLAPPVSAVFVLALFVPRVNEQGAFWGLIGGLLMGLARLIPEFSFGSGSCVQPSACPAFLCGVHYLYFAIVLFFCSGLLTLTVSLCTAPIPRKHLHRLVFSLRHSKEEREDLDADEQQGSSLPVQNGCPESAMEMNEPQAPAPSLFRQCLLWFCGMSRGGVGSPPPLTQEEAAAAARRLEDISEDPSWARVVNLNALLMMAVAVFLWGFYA
From the text: A full-length cDNA clone expressing human SGLT2 (GenScript Corporation) was subcloned into Hind III and Not I sites of the pEAK15 expression vector. Clones harboring the cDNA inserts were identified by restriction analysis.
A plasmid containing human SGLT2 was linearized with Nsi I and purified by agarose gel electrophoresis. Using Lipofectamine 2000 Transfection Reagent (Invitrogen Corporation), DNA was transfected into HEK293.ETN cells and cultured in Dulbecco's Modified Eagle Medium (DMEM) containing 10% fetal bovine serum (FBS) at 37° C. under 5% CO2 for 24 hours. Transfectants were selected in the same growth medium supplemented with puromycin (Invitrogen Corporation) for two weeks. Puromycin-resistant cells were recovered and seeded on a fresh 96-well plate (single cell per well) and cultured in the presence of puromycin until cells became confluent.
Cells expressing SGLT1 or SGLT2 were seeded on 96-well ScintiPlate scintillating plates (PerkinElmer, Inc.) in DMEM containing 10% FBS (1×10^5 cells per well in […] medium) incubated at 37° C. under 5% CO2 for 48 hours prior to the assay.

SD rats = test: Urinary glucose excretion in SD rats; assay type: in vivo; conditions: 1 mg/kg oral
Description: Each test compound was dissolved in 30% PEG400 and administered orally to overnight-fasted SD rats by gavage at the dose level of 1 mg/kg. Control rats were given 30% PEG400 only. One hour post dosing, glucose solution (2 g/kg, 10 mL/kg) was administered by oral gavage. Urine was collected within metabolic cages from 0 to 4 hours, and 4 to 24 hours post-dosing for urine volume and glucose measurement. Food was removed 16 hours before dosing and then provided 4 hours after dosing. Water was supplied ad libitum. The concentration of urinary glucose was determined at 4 hours and 24 hours post-dose using a biochemistry analyzer. Results were recorded for the periods 0-4 hours, 4-24 hours and 0-24 hours, and expressed as a percentage of the urinary glucose excretion (UGE) seen with reference compound A, which was run as a positive control in all experiments.

T1 sequence (P33261 whole entry): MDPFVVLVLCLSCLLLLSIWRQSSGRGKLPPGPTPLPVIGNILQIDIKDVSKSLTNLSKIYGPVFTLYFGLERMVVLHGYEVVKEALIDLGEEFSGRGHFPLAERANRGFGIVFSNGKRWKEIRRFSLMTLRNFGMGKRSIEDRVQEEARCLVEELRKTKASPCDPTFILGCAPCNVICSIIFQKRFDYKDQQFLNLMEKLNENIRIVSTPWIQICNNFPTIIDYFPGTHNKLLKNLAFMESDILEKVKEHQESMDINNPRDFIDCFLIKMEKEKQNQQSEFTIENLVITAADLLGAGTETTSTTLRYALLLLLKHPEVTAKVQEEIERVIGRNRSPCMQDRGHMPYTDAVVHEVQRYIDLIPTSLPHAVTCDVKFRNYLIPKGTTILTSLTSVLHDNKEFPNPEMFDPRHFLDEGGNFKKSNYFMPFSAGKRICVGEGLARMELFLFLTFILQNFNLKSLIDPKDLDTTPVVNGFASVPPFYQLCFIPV

| SMILES | IC50 (CYP2C19) [µM] | IC50 (CYP1A2) [µM] | IC50 (human SGLT2) [µM] | Selectivity (human SGLT2) | Urinary Glucose Excretion in Rats, 0-24 h, % relative to Ref A (SD rats) [%] | Urinary Glucose Excretion in Rats, 0-24 h (mean ± SD) (SD rats; glucose 2 g/kg 1 h post dose) [mg] | Urinary Glucose Excretion in Rats, 0-4 h, % relative to Ref A (SD rats; 0-4 h) [%] | Urinary Glucose Excretion in Rats, 4-24 h, % relative to Ref A (SD rats; 4-24 h) [%] | Urinary Glucose Excretion in Rats, 0-4 h (mean ± SD) (SD rats; glucose 2 g/kg 1 h post dose, 0-4 h) [mg] | Urinary Glucose Excretion in Rats, 4-24 h (mean ± SD) (SD rats; glucose 2 g/kg 1 h post dose, 4-24 h) [mg] |
| --- | --- | --- | --- | --- | --- | --- | --- | --- | --- | --- |
| [2H]C([2H])([2H])Oc1ccc(C([2H])([2H])c2cc([C@@H]3O[C@H](CO)[C@@H](O)[C@H](O)[C@H]3O)ccc2Cl)cc1 [compound 19, (2S,3R,4R,5S,6R)-2-(4-chloro-3-((4-(methoxy-d3)phenyl)methyl-d2)phenyl)-6-(hydroxymethyl)tetrahydro-2H-pyran-3,4,5-triol] | 355 | > 1000 | 0.0008 | 1025 | 83 | 2096 ± 332 | – | – | – | – |
| COc1ccc(Cc2cc([C@@H]3O[C@H](CO)[C@@H](O)[C@H](O)[C@H]3O)ccc2Cl)cc1 [Ref B, (2S,3R,4R,5S,6R)-2-(4-chloro-3-(4-methoxybenzyl)phenyl)-6-(hydroxymethyl)tetrahydro-2H-pyran-3,4,5-triol, reference compound] | 195 | > 1000 | 0.0019 | 284 | 78 | 1889 ± 361 | 122 | 74 | 233 ± 35 | 1657 ± 354 |
